Measured values taken from publication PMC8998355, “Diversity-Oriented Synthesis Catalyzed by Diethylaminosulfur-Trifluoride—Preparation of New Antitumor Ecdysteroid Derivatives” (International Journal of Molecular Sciences, 2022).

Assays:
[1] = molecular target: T1, ABCB1 (Homo sapiens, UniProt P08183); assay: ABCB1 inhibition assay (rhodamine 123 accumulation, flow cytometry); assay type: cell-based; details: human, probe rhodamine 123 (5.2 µM); for inhibition at 20 min, 2 µM / inhibition at 20 min, 20 µM: n = 1
T1 construct: expressed in transfected cells; host or cells: L5178Y mouse T-cell lymphoma cells transfected with pHa MDR1/A retrovirus, selected with colchicine (L5178YMDR)
Description: ABCB1 inhibition was determined by the intracellular accumulation of rhodamin 123 as reported before. Briefly, 2 × 10^6 cells/mL of L5178Y and L5178YMDR cell lines were re-suspended in serum-free McCoy’s 5A medium and distributed in 0.5 mL aliquots into Eppendorf centrifuge tubes. The compounds were added at a final concentration of 2 or 20 μM and the samples were incubated for 10 min at room temperature. Tariquidar was used as positive control and DMSO as negative control; for the latter, no activity was observed. Subsequently, 10 μL (5.2 μM final concentration) of the ABCB1 substrate fluorescent dye rhodamine 123 was added and the cells were incubated further for 20 min at 37 °C, washed twice and re-suspended in 1 mL PBS for analysis. Fluorescence of the cell population was measured with a PartecCyFlow® flow cytometer (Partec, Münster, Germany). Mean fluorescence intensity percentage was calculated for the treated vs. untreated L5178YMDR cells. Inhibition percentage for the treated cells was calculated from the corresponding values of the untreated L5178Y and L5178YMDR cells, representing 100% and 0% inhibition, respectively.

[2] = system: L5178Y mouse T-cell lymphoma cells; assay: MTT cytotoxicity assay (24 h, 1 × 10^4 cells); assay type: cell-based; details: 24 h MTT, n = 3, read-out: Cytotoxicity (IC50 ± SD)
Description: (§1) To assess the compounds’ effect on cell growth and viability, we used two different experimental setups of MTT assay. This allowed a comparative evaluation of results obtained from a short-term (24 h) treatment of a relatively higher number (10,000) of cells and those from a long-term (72 h) treatment of a lower cell number (6000), which makes it possible to gain some insight into the cytotoxic vs. cytostatic properties of the compounds. Even though MTT assay is an endpoint detection method, i.e., it provides a single readout of viable cells at the end of the experiment, such a comparison offers a reliable tool to identify antiproliferative activity of compounds that are not cytotoxic.
(§2) L5178Y mouse T-cell lymphoma cells (ECACC Cat. No. 87111908) were obtained from FDA, Silver Spring, MD, USA. These were transfected with pHa MDR1/A retrovirus as described previously. ABCB1-expressing L5178YMDR cells were selected by culturing the infected cells with colchicine. The cell lines were cultured in McCoy’s 5A medium supplemented with 10% heat inactivated horse serum, 2 mM L-glutamine, and penicillin–streptomycin mixture.
(§3) MTT assay was performed in 96-well flat-bottomed microtiter plates as described before. Briefly, a 10 mM concentration stock solution in DMSO was prepared for each compound. These were diluted in 100 μL of McCoy’s 5A medium. Subsequently, 1 × 10^4 (cytotoxicity assay) or 6 × 10^3 (antiproliferative assay) T-cell mouse lymphoma cells in 100 μL of medium were added to each well, except for the medium control wells.
(§4) The culture plates were further incubated at 37 °C for 24 h (cytotoxicity assay) or 72 h (antiproliferative assay); at the end of the incubation period, 20 μL of MTT solution (from a 5 mg/mL stock) was added to each well. After incubation at 37 °C for 4 h, 100 μL of SDS solution (10% in 0.01 M HCI) was added to each well and the plates were further incubated at 37 °C overnight. The cell growth was determined by measuring the optical density at 540 nm (ref. 630 nm) with a Multiscan EX ELISA reader (Thermo Labsystems, Cheshire, WA, USA). IC50 values were calculated by variable slope nonlinear regression using the log(inhibitor) vs. normalized response of GraphPad Prism 5.01 (GraphPad Software Inc., San Diego, CA, USA).

[3] = system: L5178YMDR cells (ABCB1-expressing); assay: MTT cytotoxicity assay (24 h, 1 × 10^4 cells); assay type: cell-based; details: Mus musculus, 24 h MTT, n = 3, read-out: Cytotoxicity (IC50 ± SD)
Description: as §1, §2, §3, §4

[4] = MTT cytotoxicity assay (24 h); assay type: cell-based; details: human, MRC-5 human embryonal lung fibroblasts; MRC-5, 24 h MTT, n = 3; read-out: Cytotoxicity (IC50 ± SD)
Description: as §1
(§5) MRC-5 human embryonal lung fibroblasts (CCL-171, ATCC) were acquired from Sigma-Aldrich (Merck, KGaA, Darmstadt, Germany), and were cultured in EMEM medium containing 4.5 g/L glucose and supplemented with a non-essential amino acid mixture, a selection of vitamins, and 10% of FBS.
(§6) The adherent human fibroblast cells were seeded in 100 μL of EMEM medium overnight before each assay. Two-fold serial dilutions of the compounds (0.19–100 µM) were prepared in separate plates, then transferred to the plates containing the adherent cell lines.
as §4

[5] = system: L5178Y mouse T-cell lymphoma cells; assay: MTT antiproliferative assay (72 h, 6 × 10^3 cells); assay type: cell-based; details: Mus musculus; L5178Y, 72 h MTT, n = 3; read-out: Antiproliferative Effect (IC50 ± SD)
Description: as §1, §2, §3, §4

[6] = system: L5178YMDR cells (ABCB1-expressing); assay: MTT antiproliferative assay (72 h, 6 × 10^3 cells); assay type: cell-based; details: Mus musculus, 72 h MTT, n = 3, read-out: Antiproliferative Effect (IC50 ± SD)
Description: as §1, §2, §3, §4

[7] = system: MRC-5 human embryonal lung fibroblasts; assay: MTT antiproliferative assay (72 h); assay type: cell-based; details: Homo sapiens, MRC5; MRC-5, 72 h MTT, n = 3; read-out: Antiproliferative Effect (IC50 ± SD)
Description: as §1, §5, §6, §4

[8] = system: L5178YMDR cells; assay: Combination assay with doxorubicin (checkerboard microplate method, MTT); assay type: cell-based, mouse; parameters: Dm (antilog of the x-intercept of the median-effect plot): unit not given here; details: for CIavg (weighted average CI): (CI50 + 2CI75 + 3CI90)/6
Description: Compounds 7, 10, 11, 13, and 14 had sufficient individual antiproliferative properties for their assessment of chemo-sensitizing activity. This was carried out as an antiproliferative assay on L5178YMDR cells in combination with doxorubicin, arranged according to the checkerboard microplate method.
The checkerboard microplate method was used to evaluate the compounds’ interaction with doxorubicin, as described before. Briefly, doxorubicin (2 mg/mL, Teva Pharmaceuticals, Budapest, Hungary) was serially diluted in the horizontal direction (100 µL per well), and the ecdysteroid was subsequently diluted in the vertical direction (50 µL per well). L5178YMDR cells were re-suspended in culture medium and added to each test well in 50 µL to contain 1 × 10^4 cells per well, and 50 µL of medium was added to the medium control wells. The plates were incubated for 72 h at 37 °C in a CO2 incubator and, at the end of the incubation period, the cell growth was determined by MTT assay as described above. Cell viability data were analyzed by the Calcusyn software using the Chou method, and drug interactions were expressed as combination index (CI) values, in which 0 < CI < 1, CI = 1, and CI > 1 refer to synergism, additivity, and antagonism, respectively.

[9] = L5178YMDR, rhodamine 123 accumulation
[10] = drug ratio 23.2:1, with doxorubicin
[11] = drug ratio 46.4:1, with doxorubicin
[12] = drug ratio 92.8:1, with doxorubicin
[13] = drug ratio 185.6:1, with doxorubicin

Compound	IC50 [2] [µM]	IC50 [3] [µM]	IC50 at 24 h [4] [µM]	IC50 [5] [µM]	IC50 [6] [µM]	IC50 [7] [µM]	inhibition at 20 min, 2 µM [1, 9] [%]	inhibition at 20 min, 20 µM [1, 9] [%]	further results
COc1cc2c(cc1OC)CN(CCc1ccc(NC(=O)c3cc(OC)c(OC)cc3NC(=O)c3cnc4ccccc4c3)cc1)CC2 [tariquidar, reference compound]									inhibition at 20 min, 0.02 µM ([1]; 20 nM, L5178YMDR, rhodamine 123 accumulation, read-out: ABCB1 inhibition, positive control): 87.5%
CC(=O)[C@H]1CC[C@@]2(O)C3=CC(=O)[C@@H]4C[C@H]5OC(C)(C)O[C@H]5C[C@]4(C)[C@H]3CC[C@]12C [Compound 9, poststerone 2,3-acetonide]	> 100	> 100	> 100	49.2 ± 3.4	85.2 ± 5.1	> 100	-0.4	-0.42	
CC(=O)[C@H]1CC=C2C3=CC(=O)[C@@H]4C[C@H]5OC(C)(C)O[C@H]5C[C@]4(C)C3=CC[C@@]21C [Compound 6]	91.1 ± 6.8	> 100	> 100	31.2 ± 3.9	54.1 ± 2.3	> 100	-0.38	0.13	
COc1cccc2c1C(=O)c1c(O)c3c(c(O)c1C2=O)C[C@@](O)(C(=O)CO)C[C@@H]3O[C@H]1C[C@H](N)[C@H](O)[C@H](C)O1 [Doxorubicin, reference compound]	0.3 ± 0.1	8.1 ± 2.8	1.7 ± 0.5	0.014 ± 0.002	0.71 ± 0.2				
CC(=O)O[C@H]1C[C@]2(C)C3=CC[C@@]4(C)C(=CC[C@@H]4[C@@]4(C)OC(C)(C)O[C@@H]4CCC(C)(C)O)C3=C(O)C(=O)[C@@]23C[C@@H]13 [Compound 17]	27.2 ± 1	35.9 ± 0.6		20.3 ± 1	14.3 ± 0.5	5.9 ± 1.2	1.08	45.5	inhibition at 20 min ([1]; concentration not given, read-out: direct ABCB1 inhibition): ~50%
CC(=O)[C@H]1CC[C@@]2(O)C3=CC(=O)[C@@H]4C[C@H]5OC(C)(C)O[C@H]5C[C@]4(C)[C@H]3[C@H](O)C[C@]12C [Compound 3]	> 100	> 100	> 100	75.5 ± 4.1	> 100	21.4 ± 0.2	-0.03	-0.35	
CC(=O)[C@H]1CC=C2C3=CC(=O)[C@@H]4C[C@H]5OC(C)(C)O[C@H]5C[C@]4(C)[C@H]3CC[C@@]21C [Compound 10]	72.9 ± 5.6	83 ± 5	> 100	27.7 ± 0.6	42.3 ± 1.5	> 100	-0.38	-0.16	CI at ED75 [8, 10]: 0.50; CI at ED90 [8, 10]: 0.33; Dm (antilog of the x-intercept of the median-effect plot) [8, 10]: 6.50; CIavg (weighted average CI) [8, 10]: 0.46; CI at ED75 [8, 11]: 0.51; CI at ED90 [8, 11]: 0.30; Dm (antilog of the x-intercept of the median-effect plot) [8, 11]: 10.99; CIavg (weighted average CI) [8, 11]: 0.46; CI at ED75 [8, 12]: 0.55; CI at ED90 [8, 12]: 0.35; Dm (antilog of the x-intercept of the median-effect plot) [8, 12]: 14.02; CIavg (weighted average CI) [8, 12]: 0.50; CI at ED75 [8, 13]: 0.61; CI at ED90 [8, 13]: 0.36; Dm (antilog of the x-intercept of the median-effect plot) [8, 13]: 19.47; CIavg (weighted average CI) [8, 13]: 0.55
CC(=O)[C@H]1CC[C@@]2(O)C3=CC(=O)[C@@H]4C[C@H]5OC(C)(C)O[C@H]5C[C@]4(C)C3=CC[C@]12C [Compound 5]	> 100	> 100	> 100	56.5 ± 6	80.2 ± 2.1	20.9 ± 3.6	0.2	-0.41	
CC(=O)O[C@H]1C[C@@]2(C)C(=C(O)C(=O)C3=C2CC[C@@]2(C)C3=CC[C@@H]2[C@@]2(C)OC(C)(C)O[C@@H]2CCC(C)(C)O)C[C@H]1O [Compound 16, calonysterone 2-acetate 20,22-acetonide]	63 ± 4.4	78.7 ± 6.7	> 100	50.3 ± 0.2	40 ± 3.4	67.2 ± 14.6	0.71	15.7	
